Measurements: paper PMC5289641, “Bioactivity of a modified human Glucagon-like peptide-1” (PLoS ONE, 2017)
Like-named read-outs stand apart in the source and are kept apart here. Where no end group is shown, it is not given here.

Assays:
[1] = tested on: Mouse insulinoma cells (MIN6); settings: 48 h, CCK-8, OD450
Description: Mouse insulinoma cells (MIN6) (iCell Bioscience, Inc. Shanghai, China) were cultured in a 25 cm^2 cell culture flasks and then seeded into 96-well microplates at a density of 6.0×10^4 cells per well for the cell proliferation assay. […] After 48 h of incubation, 10 μL CCK-8 solution (cell counting kit, Dojindo China Co., Ltd. Shanghai, China) was gently mixed into the culture and the culture was further incubated for 1 to 4 hours. A microplate reader (Bio-Rad, USA) was used to measure cell viability at a 450 nm wavelength (OD450). The cell viability ratio (CRV) was calculated as (A-A0)/A0 × 100% (where A was the absorbance of the treated cell culture and A0 was the OD450 value of a blank (RPMI 1640 medium only)).
Fig 3 Mouse pancreatic β cell proliferation (A), RT-qPCR analysis of gene expression (B), and insulin secretion (C). MIN6 cells were seeded into flat-bottomed 96-well microtiter plates at a density of 6.0×10^4 cells per well. […] The control was cell cultures treated with DPBS only. […] The controls were cells incubated with just DPBS in the presence of 10mM glucose. Cell culture supernatants were collected and insulin concentration determined using a mouse insulin ELISA kit (JiNingShiYe Ltd. Shanghai, China). Data shown represent the mean ±SD (n = 6). Different letters or (*) indicate significant difference at p<0.05.

pancreatin = settings: peptide 2.5 mg/mL, pancreatin 1.0 mg/mL, PBS pH 7.4, 37°C, SDS-PAGE with silver staining
trypsin = settings: peptide 10 mg/mL, trypsin 4 mg/mL, PBS pH 7.4, 37°C, SDS-PAGE with silver staining
Description: (§1) Samples (20 μL) treated with either trypsin or pepsin for different lengths of time were then mixed with SDS-PAGE loading buffer (2×), heated at 100°С for 10 min, and then analyzed with SDS-PAGE. Protein bands on the gels were visualized by silver staining.
(§2) The reaction solutions were sampled at different time points and analyzed by SDS-PAGE. […] Negative control is trypsin only.

pepsin = pepsin (Sus scrofa, UniProt P00791); settings: peptide 1 mg/mL, pepsin 2 mg/mL, HCl solution pH 1.5~2.0, 37°C, SDS-PAGE with silver staining
pepsin, sequence (P00791 60-385): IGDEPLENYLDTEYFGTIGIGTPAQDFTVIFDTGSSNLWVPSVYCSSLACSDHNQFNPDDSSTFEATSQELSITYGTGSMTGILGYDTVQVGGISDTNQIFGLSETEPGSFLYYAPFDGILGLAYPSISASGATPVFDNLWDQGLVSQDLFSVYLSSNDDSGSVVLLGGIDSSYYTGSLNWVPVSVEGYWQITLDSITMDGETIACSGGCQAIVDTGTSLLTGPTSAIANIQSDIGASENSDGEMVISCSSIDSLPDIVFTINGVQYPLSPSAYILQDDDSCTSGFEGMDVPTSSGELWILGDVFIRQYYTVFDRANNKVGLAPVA
Description: as §1, §2

Compound | Cell viability ratio (CRV) ([1]; 0.3 μM peptide) [%] | Cell viability ratio (CRV) ([1]; 3 μM peptide) [%] | Cell viability ratio (CRV) ([1]; 15 μM peptide) [%] | State after 5 min with pancreatin (pancreatin) | State after 15 min in pancreatin (pancreatin) | Resistance to pancreatin cleavage relative to native GLP-1 (pancreatin) | Resistance to trypsin cleavage relative to native GLP-1 (trypsin) | Time resistant to trypsin cleavage (trypsin) | Time to degradation by pepsin (pepsin) [min] | State after 8 h incubation with trypsin (trypsin; 8 h)
HGEGTFTSDVSSYLEGQAAQEFIAWLVDGR-NH2 [mGLP-1] | 10.58 | 20.58 | 60.26 | quickly degraded | faint mGLP-1 was still detectable | more resistant | more resistant | up to 8 hours | ≤ 10 | 
CC[C@H](C)[C@H](NC(=O)[C@H](Cc1ccccc1)NC(=O)[C@H](CCC(=O)O)NC(=O)[C@H](CCCCN)NC(=O)[C@H](C)NC(=O)[C@H](C)NC(=O)[C@H](CCC(N)=O)NC(=O)CNC(=O)[C@H](CCC(=O)O)NC(=O)[C@H](CC(C)C)NC(=O)[C@H](Cc1ccc(O)cc1)NC(=O)[C@H](CO)NC(=O)[C@H](CO)NC(=O)[C@@H](NC(=O)[C@H](CC(=O)O)NC(=O)[C@H](CO)NC(=O)[C@@H](NC(=O)[C@H](Cc1ccccc1)NC(=O)[C@@H](NC(=O)CNC(=O)[C@H](CCC(=O)O)NC(=O)[C@H](C)NC(=O)[C@@H](N)Cc1c[nH]cn1)[C@@H](C)O)[C@@H](C)O)C(C)C)C(=O)N[C@@H](C)C(=O)N[C@@H](Cc1c[nH]c2ccccc12)C(=O)N[C@@H](CC(C)C)C(=O)N[C@H](C(=O)N[C@@H](CCCCN)C(=O)NCC(=O)N[C@@H](CCCNC(=N)N)C(N)=O)C(C)C [GLP-1, reference compound] | 15.65 | 23.65 | 58.56 | quickly degraded | completely destroyed |  |  |  | ≤ 10 | completely degraded
